Data as given in patent US20160258954A1, “METHOD OF DIAGNOSING AND TREATING EPSTEIN BARR VIRUS-BASED MYALGIC ENCEPHALOMYELITIS CHRONIC FATIGUE SYNDROME PATIENTS USING A SERUM ANTIBODY ASSAY” (CFS, LLC, priority 2015, published 2016).

Assays:
[1] = Group A patients
SEID patients = assay: Reviews of antiviral therapy of EBV, CMV and HHV6 subset Group A SEID patients; assay type: in vivo, human; conditions: cidofovir: unpublished studies
Description: These antiviral agents inhibit the respective DNA polymerases of the appropriate CMV, EBV, HHV6 herpesviruses.[8] […] Herpesvirus (EBV, CMV, HHV6) abortive lytic replication may be associated with SEID.

CFS patients = assay: Cidofovir treatment of CFS patients; assay type: in vivo, human
Experimental: In general, to provide a therapeutically effective amount of the antiviral agent, a suitable effective dose will be in the range of 0.1 to 20 grams a day and preferably in the range between 0.3 to 15 grams per day, more preferably about 0.5 to 10 grams per day. The dosage of course, varies with the body weight of the patient up to a 70 kg individual, a dose of 4 grams per day may be appropriate (e.g., […] valacyclovir every six hours). The desired dose can be presented as two-four or more smaller doses administered at appropriate intervals throughout the day. These smaller doses may be administered in unit's dosage forms. For example, for valacyclovir and famciclovir, the dosage can be, for example 14 mg/kg every 6 hours (1.0 g every 6 hours for a 70 kg person). The dosage of valacyclovir and famciclovir can be, for example, up to or at least about 0.5-8 grams every 6 hours. The dosage of valgancyclovir can be, for example, from about 450-900 mg every 12 hours, or up to or at least about 100-2000 mg or more every 12 hours, depending on for example patient weight and tolerance. For maribavir the dosage can be, for example, for about 400-500 mg every 8 hours or for example up to or at least about 100-1000 or more every 8 hours. […] Accordingly, the dosage is adjusted to […] every two weeks. […]

[2] = tested on: EBV subset ME/CFS patients; assay: Energy Index Point Score (EIPS) of six EBV subset ME/CFS patients treated with valacyclovir for over 12 months; assay type: in vivo, human
Description: FIG. 2A is a table depicting the clinical results that establish EBV Abortive Lytic replication in the first of six EBV subset ME/CFS patients treated with valacyclovir for over 12 months;
As depicted in FIG. 1, the Energy Index (EI) point score (Copyright, Lerner AM and Deeter R G, 1999), is a simple and reliable metric that can be used to easily evaluate the functional capacity of the CFS patient at each patient-physician visit. *The CFS Energy Index point score can also be determined by questionnaire (US copyright, 1999 Lerner A. M., Deeter, R. J) reproduced with permission. **Kcal per day is calculated for a 70 kg CFS patient. The EI is measured on a scale of 1-10. Validation of the EI was done using two methods: 1.) 20 CFS patients and 22 healthy adults, matched for sex, age, place, and time; EI, CFS=3.6; EI, healthy adults=9.9, p=<0.0001; and 2.) 55 CFS patients evaluated at the same time by the EI and fatigue severity score, correlation 0.67, p=0.0066. Improvement to disappearance of CFS symptoms correlates with an increasing EI.
The validated energy index point score generally can be calculated for each CFS patient every 3 months at physician visits. […]
Demographics. […] The EIPS is a validated (FSS-9 item scale with high degree of internal consistency measured by Cronbach's alpha) is a Functional Activity Appraisal: energy Index Score Healthcare worker Appraisal.

EBV thymidine kinase = EBV thymidine kinase (Epstein-Barr virus, UniProt P03177); conditions: after gastrointestinal absorption; cited from earlier work
[3] = tested on: Group A ME/CFS patients (EBV, HCMV, HHV6 subsets); assay: Systematic review 2001-2007 of Group A ME/CFS patients given subset-directed antiviral treatment; assay type: in vivo, human; conditions: 79 of 106 group A patients, pooled valacyclovir (EBV subset) or valganciclovir (HCMV, HHV6 subsets); p<0.0001
Description: A ME/CFS diagnostic panel was created utilizing initial Fukuda/Carruthers criteria and a systematic review of 142 ME/CFS patients. Two groups of ME/CFS patients were found. Group A patients had elevated serum IgG antibody titers to the herpes viruses Epstein-Barr virus (EBV), cytomegalovirus (HCMV) and Human Herpes virus 6 (HHV6) in single or multiple virus infection, but no other co-infections. Group B patients had similar elevated herpes virus antibody titers, plus serologic evidence of co-infections, tick-borne (“Borrelia burgdorferi”, “Anaplasma phagocytophilia”, “Babesia microti”); “Mycoplasma pneumoniae”; or adult rheumatoid fever. One hundred and six group A ME/CFS patients were followed from 2001-2007, and treated with subset directed valacyclovir EBV subset or valganciclovir (HCMV, HHV6 subsets). The data included over 7000 patient visits and 35,000 data entries.

EBV thymidine kinase, sequence (P03177 whole entry): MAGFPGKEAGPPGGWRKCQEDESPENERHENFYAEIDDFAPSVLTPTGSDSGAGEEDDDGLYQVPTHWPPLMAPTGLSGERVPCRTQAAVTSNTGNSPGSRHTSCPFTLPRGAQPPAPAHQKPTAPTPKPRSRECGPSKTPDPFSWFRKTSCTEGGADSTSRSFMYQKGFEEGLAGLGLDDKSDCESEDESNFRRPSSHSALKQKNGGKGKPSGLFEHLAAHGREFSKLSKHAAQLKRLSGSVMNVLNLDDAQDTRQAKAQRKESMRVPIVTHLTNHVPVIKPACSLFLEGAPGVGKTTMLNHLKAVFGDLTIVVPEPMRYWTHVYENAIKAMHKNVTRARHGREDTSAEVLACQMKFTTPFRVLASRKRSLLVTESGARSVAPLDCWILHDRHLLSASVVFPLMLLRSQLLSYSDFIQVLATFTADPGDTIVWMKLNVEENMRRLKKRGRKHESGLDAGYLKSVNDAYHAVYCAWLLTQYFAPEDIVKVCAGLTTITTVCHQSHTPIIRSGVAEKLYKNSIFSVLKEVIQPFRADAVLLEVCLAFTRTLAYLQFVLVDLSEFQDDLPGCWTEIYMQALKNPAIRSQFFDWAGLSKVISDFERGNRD

Structure (SMILES) | therapeutic result in SEID patients (SEID patients) | Group A patients recovered to resume normal life [3] | further results
Nc1nc2c(ncn2COCCO)c(=O)[nH]1 [acylocivir] | – | – | absorption [1]: typically not absorbed
Nc1ccn(C[C@@H](CO)OCP(=O)(O)O)c(=O)n1 [cidofovir] | salutary results | – | effectiveness relative to other antiviral agents (CFS patients; administered intravenously): two to three time more effective; treatment time (CFS patients; patients over 50 and/or CFS over 10 years, reduced from over one year): 6-9 months
CC(=O)OCC(CCn1cnc2cnc(N)nc21)COC(C)=O [famciclovir] | salutary results | – | –
CC(C)[C@H](N)C(=O)OCCOCn1cnc2c(=O)[nH]c(N)nc21 [valacyclovir] | salutary results | 74.5% | final EIPS values ([2]; 5 group A ME/CFS patients, one year later, initial EIPS 3.5-5.0 (one patient 6)): 7-8; final EIPS value ([2]; single group B ME/CFS patient (Borrelia burgdorferi co-infection), baseline 3.5): 5; greater affinity for EBV thymidine kinase than for the host cellular enzyme (EBV thymidine kinase): 200 ×
CC(C)[C@H](N)C(=O)OCC(CO)OCn1cnc2c(=O)nc(N)[nH]c21 (stereo partly drawn) [valganciclovir] | salutary results | 74.5% | –
